Data reported in US20060052356A1, “Pharmacological methods to modulate oxygen consumption” (priority 2004, published 2006).

Legend:
Sprague Dawley rats = assay: Toxicity and mortality in anesthetized rats given protein synthesis inhibitors (Example 3)
protein synthesis = assay: 35S-methionine incorporation into tissue protein after i.v. protein synthesis inhibitor in anesthetized rats (Example 3); format: in vivo, Sprague Dawley rats

C[C@H]1c2cccc(O)c2C(=O)C2=C(O)[C@]3(O)C(=O)C(C(N)=O)=C(O)[C@@H](N(C)C)[C@@H]3[C@@H](O)[C@@H]21 [Doxycycline]
mortality (Sprague Dawley rats; at doses <1/3 of LD50): ~66%

O=c1c(-c2ccc(O)cc2)coc2cc(O)cc(O)c12 [Genistein]
toxicity (Sprague Dawley rats; rat, in vivo): toxicity at low doses
inhibition of protein synthesis (in words) (protein synthesis; single agents, intravenous): poor inhibitor

COc1ccc(C[C@H]2NC[C@H](O)[C@H]2OC(C)=O)cc1 [anisomycin]
inhibition of protein synthesis (in words) (protein synthesis; rat, in vivo, iv): substantial inhibition

COc1ccc(C[C@H](N)C(=O)N[C@H]2[C@@H](O)[C@H](n3cnc4c(N(C)C)ncnc43)O[C@@H]2CO)cc1 [puromycin]
inhibition of protein synthesis (in words) (protein synthesis; single agents, intravenous): substantial inhibition
